1 compound from US20090093460A1, “Compositions” (AstraZeneca AB, priority 2003, published 2009) can be followed below.

Read-outs that look alike come from different tables or passages of the source.

Series [1] in a line: Brain exposure in rats. In kind it is in vivo. Conditions: rat; for Kp at 1 h: brain. Here is the method: Brain exposure was measured in rats. For concentrations of 11-piperazin-1-yldibenzo[b,f][1,4]thiazepine in brain, rats were dosed either po or iv (n=3 per dose route). At one hour after compound administration blood and brain samples were obtained and then processed for analysis using HPLC/MS to measure concentrations of 11-piperazin-1-yldibenzo[b,f][ 1,4]thiazepine.

Series [2] relates to mice. Description: Mouse forced swim test. Type of series: in vivo. Conditions: 10.0 mg/kg sc, 15 minutes prior. The procedure:
Methods: Mice were placed in cylinders of water (25.0° C.±1.5° C.) for 6 minutes. The amount of immobility was quantified during the last 4 minutes of each session. The experimental observer was blind to the treatment conditions. […] Imipramine 45.0 mg/kg and citalopram 15.0 mg/kg were measured as the salt and administered ip 60 minutes prior to the behavioural session.

The target in series [3] is T1, D2 receptors (Homo sapiens, UniProt P14416).
T1 construct: from tissue; host or cells: brain of living primate subjects (PET)
The arrangement: species or system primate. The conditions noted are these: in vivo.

For series [4], the target named is T2, D1 receptors (Homo sapiens, UniProt P21728).
T2 construct: from tissue; host or cells: brain of living primate subjects (PET)
Description: PET scans of primate subjects, D1 occupancy. Type of series: in vivo. Conditions: preliminary PET scans. The source says:
(§1) The compound of Formula I is a dibenzothiazepine that has shown antidopaminergic activity.

For series [5], the target named is T3, 5-HT2A receptors (Homo sapiens, UniProt P28223).
T3 construct: from tissue; host or cells: brain of living primate subjects (PET)
Nature of the series: PET scans of primate subjects, 5-HT2A occupancy. Type of series: in vivo. Conditions: preliminary PET scans.
Description: as §1

Series [6] in a line: Plasma levels in satellite exposure animals (Geller-Seifter). In kind it is in vivo. The conditions noted are these: Long Evans, rat, subcutaneous, 0.25 hours after administration. Here is the method:
Anxiolytic activity of 11-piperazin-1-yldibenzo[b,f][1,4]thiazepine was tested in rats according to the Geller-Seifter conflict test. Efficacy results are presented in Table 1 and plasma levels in satellite exposure animals at 0.25 hours after administration are provided in Table 2.
Several doses were tested on a given day in different subjects. Each dose, then, was tested in a different sub-set of rats. The dependent variables recorded were the rate of responding in unpunished and punished components (total responses/total time under the component), the number of shocks delivered. A selective anxiolytic effect is defined as an increase in responding in the […] components with relatively less or no effect on responding in […] components. t-Tests were used to compare mean of the control's rate of responding on vehicle day of the rats used for a specific dose to the same rats means following delivery of each dose of compound (for only the rats used within each dose). Brains, CSF and plasma were collected in a satellite group of rats that match the Geller-Seifter rats to evaluate exposure levels.
Exposure sampling: In weight and feeding status-matched subjects, terminal plasma, whole brain and CSF samples were collected. Four rats were used for each of the 4 doses of drug, with samples obtained 15 minutes after dosing.

In series [7] the target is T4, 5-HT1A receptors (Homo sapiens, UniProt P08908).
T4 sequence (P08908 1-422): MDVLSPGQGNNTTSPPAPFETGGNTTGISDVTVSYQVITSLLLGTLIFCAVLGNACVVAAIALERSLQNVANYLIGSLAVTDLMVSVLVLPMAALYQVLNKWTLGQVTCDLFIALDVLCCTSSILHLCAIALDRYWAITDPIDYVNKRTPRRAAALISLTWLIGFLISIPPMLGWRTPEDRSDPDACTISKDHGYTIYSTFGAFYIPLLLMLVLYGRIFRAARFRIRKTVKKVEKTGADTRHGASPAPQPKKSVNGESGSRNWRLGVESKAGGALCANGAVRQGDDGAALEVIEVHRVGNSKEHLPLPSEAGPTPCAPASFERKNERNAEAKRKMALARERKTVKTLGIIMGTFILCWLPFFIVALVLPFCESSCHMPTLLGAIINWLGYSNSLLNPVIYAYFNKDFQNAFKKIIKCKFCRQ
Nature of the series: In vitro assay of 5HT1A agonism (GTPγ35S, CHO membranes). Type of series: biochemical. The arrangement: expressed in transfected cells; host or cells: CHO. Here is the method: CHO membranes (10 μg protein) expressing human 5-HT1A receptors were incubated in 100 μl of 20 mM HEPES, pH 7.4 assay buffer containing 10 mM MgCl2, 100 mM NaCl, 0.1% BSA, 20 μM GDP, 200 μg WGA-PVT beads (Amersham RPNQ0001), 200 pM GTPγ^35S (Perkin Elmer NEG-030H). 11-piperazin-1-yldibenzo[b,f][1,4]thiazepine was incubated with the above at 11 different concentrations varying from 10 μM to 170 pM in Packard OptiPlates with shaking for 1.5 hours at room temperature. […] The plates were centrifuged to settle the beads and measured in a Parkard TopCount.

In series [8] the target is H1 receptor (Homo sapiens, UniProt P35367). Nature of the series: H1 receptor binding. The procedure: The H1 receptor binding method was carried out in accordance with the method set out in De Backer M D et al. Biochem. Biophys. Res Commun. 197 (3); 1601, 1993.
Series [9] has as its target T5, Adrenergic α2C (Homo sapiens, UniProt P18825).
T5 sequence (P18825 1-462): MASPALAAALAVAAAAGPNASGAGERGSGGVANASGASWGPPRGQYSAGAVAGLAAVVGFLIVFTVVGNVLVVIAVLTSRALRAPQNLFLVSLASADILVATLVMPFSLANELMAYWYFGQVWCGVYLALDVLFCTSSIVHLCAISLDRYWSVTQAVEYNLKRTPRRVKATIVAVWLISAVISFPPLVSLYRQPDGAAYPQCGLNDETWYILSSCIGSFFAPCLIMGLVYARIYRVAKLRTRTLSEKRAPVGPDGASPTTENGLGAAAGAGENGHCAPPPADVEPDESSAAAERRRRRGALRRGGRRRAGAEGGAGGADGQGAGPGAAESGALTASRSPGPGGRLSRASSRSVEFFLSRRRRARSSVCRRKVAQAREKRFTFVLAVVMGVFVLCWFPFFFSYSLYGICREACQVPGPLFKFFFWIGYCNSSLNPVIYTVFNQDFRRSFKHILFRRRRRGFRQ
Description: Radioligand binding Adrenergic α2C.

Series [10] deals with T4, 5-HT1A receptors. Description: PET scans of primate subjects, 5-HT1A occupancy. Type of series: in vivo. Further details: from tissue; host or cells: brain of living primate subjects (PET). Conditions: preliminary PET scans.
Description: as §1

Series [11] deals with T6, 5HT Transporter (Homo sapiens, UniProt P31645).
T6 construct: from tissue; host or cells: brain of living primate subjects (PET)
Description: PET scans of primate subjects, 5HT Transporter occupancy. Type of series: in vivo. The conditions noted are these: preliminary PET scans.
Description: as §1

Sequence of H1 receptor (P35367 whole entry): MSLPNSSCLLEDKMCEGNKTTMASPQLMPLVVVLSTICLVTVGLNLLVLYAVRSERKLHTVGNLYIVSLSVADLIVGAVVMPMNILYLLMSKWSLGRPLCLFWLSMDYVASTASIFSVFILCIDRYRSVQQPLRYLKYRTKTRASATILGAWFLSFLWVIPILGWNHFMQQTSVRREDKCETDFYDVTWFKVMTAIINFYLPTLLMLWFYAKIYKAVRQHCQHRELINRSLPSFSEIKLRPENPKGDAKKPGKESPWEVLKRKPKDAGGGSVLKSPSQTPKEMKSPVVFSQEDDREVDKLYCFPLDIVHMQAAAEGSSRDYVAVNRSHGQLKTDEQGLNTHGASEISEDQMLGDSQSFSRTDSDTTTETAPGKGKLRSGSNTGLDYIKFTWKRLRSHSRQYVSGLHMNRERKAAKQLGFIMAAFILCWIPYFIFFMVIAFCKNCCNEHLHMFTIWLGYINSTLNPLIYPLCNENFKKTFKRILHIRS
T6 sequence (P31645 whole entry, species assumed): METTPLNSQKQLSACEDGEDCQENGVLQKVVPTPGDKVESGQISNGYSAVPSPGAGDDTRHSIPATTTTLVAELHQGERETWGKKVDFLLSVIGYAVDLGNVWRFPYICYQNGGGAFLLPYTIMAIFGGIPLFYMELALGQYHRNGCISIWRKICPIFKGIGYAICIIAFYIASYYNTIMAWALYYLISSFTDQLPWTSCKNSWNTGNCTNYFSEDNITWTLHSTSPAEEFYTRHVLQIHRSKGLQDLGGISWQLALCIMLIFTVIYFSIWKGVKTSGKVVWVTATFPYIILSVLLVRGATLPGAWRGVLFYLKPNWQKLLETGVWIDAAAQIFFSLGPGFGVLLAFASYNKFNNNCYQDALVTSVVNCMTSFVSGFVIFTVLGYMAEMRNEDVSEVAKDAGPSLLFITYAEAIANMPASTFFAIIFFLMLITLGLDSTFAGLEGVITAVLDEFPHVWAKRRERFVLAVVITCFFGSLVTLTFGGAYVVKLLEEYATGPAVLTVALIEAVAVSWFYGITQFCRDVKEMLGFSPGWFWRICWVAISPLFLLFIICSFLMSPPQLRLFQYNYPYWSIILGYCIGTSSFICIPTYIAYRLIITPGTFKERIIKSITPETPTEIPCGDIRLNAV
T2 sequence (P21728 whole entry): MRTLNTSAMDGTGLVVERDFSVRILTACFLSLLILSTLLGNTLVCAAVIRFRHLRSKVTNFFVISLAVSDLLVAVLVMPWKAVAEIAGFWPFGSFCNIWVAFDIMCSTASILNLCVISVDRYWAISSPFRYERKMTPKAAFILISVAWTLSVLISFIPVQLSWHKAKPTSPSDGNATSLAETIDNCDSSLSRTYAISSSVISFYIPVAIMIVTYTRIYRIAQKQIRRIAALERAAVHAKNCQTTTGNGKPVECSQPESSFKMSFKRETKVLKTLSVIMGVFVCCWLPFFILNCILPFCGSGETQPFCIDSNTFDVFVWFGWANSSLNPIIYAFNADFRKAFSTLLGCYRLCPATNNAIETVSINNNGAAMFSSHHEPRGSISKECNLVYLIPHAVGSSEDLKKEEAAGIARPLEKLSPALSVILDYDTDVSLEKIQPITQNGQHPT
T3 sequence (P28223 whole entry): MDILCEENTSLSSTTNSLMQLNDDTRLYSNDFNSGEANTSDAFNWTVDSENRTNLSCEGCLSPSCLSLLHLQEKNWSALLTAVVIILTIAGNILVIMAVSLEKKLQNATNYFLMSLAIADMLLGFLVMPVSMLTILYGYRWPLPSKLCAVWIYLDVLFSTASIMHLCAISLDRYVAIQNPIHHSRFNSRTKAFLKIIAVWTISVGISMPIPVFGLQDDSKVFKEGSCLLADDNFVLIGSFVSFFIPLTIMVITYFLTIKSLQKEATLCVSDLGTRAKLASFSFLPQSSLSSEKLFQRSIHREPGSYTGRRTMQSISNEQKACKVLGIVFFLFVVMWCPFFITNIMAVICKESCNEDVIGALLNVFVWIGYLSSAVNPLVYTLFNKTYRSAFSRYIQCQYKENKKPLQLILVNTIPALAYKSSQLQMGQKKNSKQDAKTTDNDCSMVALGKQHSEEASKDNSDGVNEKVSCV
T1 sequence (P14416 whole entry): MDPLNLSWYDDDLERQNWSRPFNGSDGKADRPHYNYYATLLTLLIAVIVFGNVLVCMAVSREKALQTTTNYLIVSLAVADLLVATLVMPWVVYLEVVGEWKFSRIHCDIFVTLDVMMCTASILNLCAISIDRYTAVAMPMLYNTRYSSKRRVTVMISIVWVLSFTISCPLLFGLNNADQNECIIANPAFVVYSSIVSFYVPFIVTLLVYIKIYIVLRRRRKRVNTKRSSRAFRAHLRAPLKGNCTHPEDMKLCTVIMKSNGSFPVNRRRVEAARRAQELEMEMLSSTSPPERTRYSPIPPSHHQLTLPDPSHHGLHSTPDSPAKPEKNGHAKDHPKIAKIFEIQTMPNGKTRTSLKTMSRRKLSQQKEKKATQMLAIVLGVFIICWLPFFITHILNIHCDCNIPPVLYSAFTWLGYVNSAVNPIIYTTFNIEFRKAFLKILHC

Turning to `c1ccc2c(c1)N=C(N1CCNCC1)c1ccccc1S2` [11-piperazin-1-yldibenzo[b,f][1,4]thiazepine], the Kp at 1 h in series [1] (30 umol/kg, one hour after 30 μmol/kg po, read-out: brain/plasma exposure ratio) turned out to be 3.4; in series [1] (after iv dosing, read-out: brain:plasma concentration ratio), 4.6. Moreover, the concentration at 1 h in series [1] (plasma, 30 μmol/kg, heading: average concentration in plasma, one hour after 30 μmol/kg po) turned out to be 0.658 µM. For the same compound, in series [2], the “antidepressant effect (immobility)” value is “antidepressant effects in this assay comparable to imipramine”. For the same compound, the “receptor occupancy by PET” value in series [3], in [4], in [5] and in series [10] was “occupies” throughout. The concentration at 0.25 h in series [6] (2 mg/kg s.c.) amounted to 4.8 µM; in series [6] (5 mg/kg s.c.), 12.1 µM; in [6] (10 mg/kg s.c.) it was 19.4 µM. In addition, the half-maximal effective concentration (EC50) (commonly the concentration at which the effect is half-maximal) in series [7] (GTPγ35S, CHO membranes) was 310 nM. Also, the Emax in series [7] (read-out: maximum efficacy) turned out to be 66%. Further, the Ki in series [8] turned out to be 1.15 nM; in series [9] (read-out: ki), 820 ± 146 nM; in series [9] (α2C, read-out: Affinity) it was 820 nM. Further, the IC50 (as a rule, the concentration at which inhibition is half-maximal) in series [9] is 5640 ± 1010 nM. The compound also returned a n in [9] of 1.1 ± 0.079. For the same compound, the inhibition (commonly how much of the control response was suppressed) at 10 µM in series [9] (10 μM) was 58%. For the same compound, the “transporter occupancy by PET” value in series [11] was “occupies”.
